Test results published in US20080206149A1, “METHOD, DYE AND MEDICAMENT FOR STAINING THE INTERNAL LIMITING MEMBRANE, EPIRETINAL MEMBRANE, THE VITREOUS AND/OR THE CAPSULE OF AN EYE” (LUDWIG-MAXIMILIANS-UNIVERSITAT MUNCHEN, priority 2005, published 2008).

Experiments:
[1] = tested on: human lens capsule; test: Capsulorhexis in patients with white cataracts (Example 2); type: in vivo
Description: In previous experimental studies, we have investigated a number of vital dyes in-vivo and in-vitro in order to evaluate their staining characteristics and safety (C. Haritoglou, A. Yu, W. Freyer, S. G. Priglinger, C. Alge, K. Eibl, C. A. May, U. Welge-Luessen, A. Kampik, “An evaluation of novel vital dyes for intraocular surgery”, Invest Ophthalmol Vis Sci 46 (2005), pp. 3315-22; F. Schuettauf, C. Haritoglou, C. A. May, R. Rejdak, A. Mankowska, W. Freyer, K. Eibl, E. Zrenner, A. Kampik, S. Thaler, “Administration of novel dyes for intraocular surgery: an in vivo toxicity animal study”, Invest Ophthalmol Vis Sci 47 (2006), pp. 3573-8; C. Haritoglou, R. Tadayoni, C. A. May, C. A. Gass, W. Freyer, S. G. Priglinger, A. Kampik, “Short-term in vivo evaluation of novel vital dyes for intraocular surgery”, Retina 26 (2006), pp. 673-8). […] Prior to the application in humans, the toxicity of bromphenol blue had been thoroughly investigated in experimental settings including ex-vivo cell culture models and in-vivo animal studies with intraocular exposure times of up to seven days (C. Haritoglou, A. Yu, W. Freyer, S. G. Priglinger, C. Alge, K. Eibl, C. A. May, U. Welge-Luessen, A. Kampik, “An evaluation of novel vital dyes for intraocular surgery”, Invest Ophthalmol Vis Sci 46 (2005), pp. 3315-22; F. Schuettauf, C. Haritoglou, C. A. May, R. Rejdak, A. Mankowska, W. Freyer, K. Eibl, E. Zrenner, A. Kampik, S. Thaler, “Administration of novel dyes for intraocular surgery: an in vivo toxicity animal study”, Invest Ophthalmol Vis Sci 47 (2006), pp. 3573-8; C. Haritoglou, R. Tadayoni, C. A. May, C. A. Gass, W. Freyer, S. G. Priglinger, A. Kampik, “Short-term in vivo evaluation of novel vital dyes for intraocular surgery”, Retina 26 (2006), pp. 673-8). […] The data obtained from these toxicity studies underlined the high biocompatibility of bromphenol blue. Bromphenol blue (C19H10Br4O5S, FW 670) has been used in the past as a vital stain to probe the blood-brain barrier and as a protein stain and as a pH indicator. In the present example, we describe experience using bromphenol blue to stain the human lens capsule in patients with white cataracts. This investigation was approved by the local ethics committee and the Institutional Review Board (IRB). Written informed consent was obtained from all patients prior to surgery.
Cataract formation was due to ocular trauma (n=2), uveitis (n=1) and unknown cause (n=2). Mean age was 59 years. All patients underwent a complete clinical examination before surgery. B-scan ultrasound of the globe was performed to rule out intraocular pathologies such as tumors or retinal detachments. Bromphenol blue powder was dissolved and diluted using BSS plus (balanced salt solution; Alcon Laboratories Inc., Fort Worth, Tex, USA) and sterilized using a 0.22 μm syringe filter. We used dye concentrations of approximately 0.1% (310 mOsm, pH 7.6). Five consecutive patients were included into this preliminary series of patients, three female and two male. Visual acuity was 20/400 or below before surgery and increased to 20/50 (mean) postoperatively. The dye was either injected into the air-filled (n=3) anterior chamber and carefully removed by injection of viscoelastic material (FIG. 7) immediately after injection or injected after having filled the anterior chamber with viscoelastic material (n=2) without prior air injection. In the latter case, the dye was evenly and gently distributed on the lens surface using the cannula and excessive dye was removed after completion of capsulorhexis (approximately one minute after application).

[2] = tested on: vitreous; test: Staining of the vitreous during vitrectomy in humans using BPB (Example 1); type: in vivo; details: 0.2%
Description: All patients (n=9) gave their written informed consent before surgery. […] A standard three port pars plana vitrectomy was performed. First, the transparent vitreous was removed as thoroughly as possible using the vitrectomy probe. Then fluid air exchange was performed and a few drops of the dye (BPB, 0.2%) were injected. After one minute, the dye was washed out by irrigation.

[3] = approximately 0.1% dye, white cataract patients

In the case of `O=S1(=O)OC(c2cc(Br)c(O)c(Br)c2)(c2cc(Br)c(O)c(Br)c2)c2ccccc21` [Bromophenol blue, Bromophenole blue], the “contrast between the white lens and the stained lens capsule” value ([1]; all patients) is reported as “excellent contrast”, the “visual acuity before surgery” value [1, 3] is reported as 20/400 and the “visual acuity postoperatively (mean)” value [1, 3] is reported as 20/50. The “staining of the anterior lens capsule” value ([1]; approximately 0.1%, both injection techniques) was “predictable and uniform staining”, the “complications such as corneal edema, inflammation or decrease of corneal endothelial cells” value ([1]; follow-up up to five months postoperatively) was “no complications noted” and the “penetration of the lens capsule by the dye” value ([1]; human, in vivo) was “did not penetrate the lens capsule”. For the same compound, the “unwanted staining of other tissues such as the iris or the corneal endothelium” value ([1]; human, in vivo) was “no unwanted staining of other tissues”, the “residual dye on the anterior lens capsule rim or any other ocular tissue” value ([1]; one day postoperatively) was “no residual dye was detected” and the “complications of complete removal of the vitreous” value ([2]; humans) was “without complications”. The “staining of vitreous remnants adherent to the retinal surface” value ([2]; washed out after one minute, patients with macular pucker or macular hole) was “bluish staining”.
